The results in this text go back to patent publication US11498933B2, “Prodrug compositions” (The University of Liverpool, priority 2017, dated 2022).

One data set has as its system CD4+ T cells. Put plainly: Viability staining (Zombie Red) in single-round infectivity assay. As to the method:
Peripheral blood mononuclear cells were isolated from healthy blood donors using Hypaque-Ficoll gradient centrifugation. CD4+ T cells were selected by magnetic beads (Miltenyi) and activated using anti-CD3 and anti-CD28 antibodies. Activated cells were seeded onto a 96-well plate at a concentration of 1×10^5 cells/well in RPMI1640 supplemented with 10% FBS, cytokine-rich supernatant, and 50% heat-inactivated human serum. Test compounds were added at this step and maintained throughout the culture. Cells were incubated at 37° C. for 21 hours. Pseudotype (GFP-tagged) HIV was then added to the culture via spinoculation and incubated for 3 days. Cells were then washed and stained with Zombie Red viability stain. Infectivity was quantified using flow cytometry.

A short description of data set [1]: Prodrug hydrolysis in mouse liver S9. The class given is in vitro ADME. The settings on record: 1 mM, compared with human liver S9. How it is done: (§1) Reaction mixtures containing either mouse liver S9 (20.8 mg/mL), mouse plasma, rat liver S9 (1 mg/mL) and phosphate buffer (100 mM, pH 7.4), rat plasma, human liver S9 (1.0 mg/mL) and phosphate buffer (100 mM, pH 7.4) or human plasma were pre-incubated at 37° C. for 5 minutes. Reactions were then initiated by addition of compounds 4, 8 or 16 (1 mM in mouse, 0.5 mM in rat and human). After incubation at 37° C., aliquots are taken at each time point and quenched in two volumes of ice-cold methanol. The quenched aliquots were then centrifuged at 14000 rpm for 5 minutes. The supernatant was then diluted into phosphate buffer (30 mM, pH 7.4) to yield samples with concentrations suitable for analysis.

Data set [2] can be described thus: Stability in single-round infectivity assay well media. The class given is in vitro ADME. The following applies: RPMI1640, 10% FBS, 50% heat-inactivated human serum, 37° C. How it is done: Well media used in the single-round infectivity assays as described above, comprised of RPMI1640 medium supplemented with 10% FBS, cytokine-rich supernatant, 50% heat-inactivated human serum and HEPES buffer (12 mM). The emtricitabine test compounds were incubated in well media at 37° C. At various time points, aliquots were quenched in two volumes of ice-cold methanol. Quenched mixtures were then centrifuged at 14000 rpm for 5 minutes. The supernatant was diluted 10-fold into Tris buffer (30 mM, pH 7.4) and then analyzed via HPLC coupled with UV detection.
Stability studies indicate that both compounds 16 and 25 were hydrolyzed to the parent emtricitabine in a time-frame matching the time of pre-incubation in single-round infectivity assays. This is likely due to the presence of heat-inactivated serum still containing active esterases.

The nature of data set [3]: Prodrug hydrolysis in mouse plasma. The class given is in vitro ADME. The settings on record: 1 mM, compared with human plasma. As to the method: as §1
The nature of data set [4]: Half-life of emtricitabine amidine prodrug in phosphate buffer. The class given is physicochemical. The following applies: Phosphate Buffer (100 mM, pH 7.4), 37° C. As to the method:
(§2) To evaluate the hydrolysis rates of emtricitabine amidine prodrugs, HPLC coupled with UV detection was used with the following method (0% to 100% acetonitrile in Et3NHOAc (50 mM, pH 8) gradient) over 10 minutes at a flow rate of 3 mL min^−1, held at 100% acetonitrile for 3 minutes, ramped down to 5% acetonitrile over 0.2 minutes and then held for 2.8 minutes. Normal human serum (Bioreclamation) or phosphate buffer (100 mM, pH 7.4) was pre-incubated at 37° C. for 5 minutes. Emtricitabine amidine compound 23 (1 mM) was then added and the reaction mixture was incubated at 37° C. […] The supernatant was injected onto a HPLC system for analysis, the resulting data can be seen illustrated in FIG. 13.

A short description of data set [5]: Half-life of emtricitabine amidine prodrug in human serum. The class given is in vitro ADME. The following applies: normal human serum, 37° C. As to the method: as §2
Data set [6] can be described thus: Kinetic analysis via UV in mixed pooled gender liver S9 (10.0 mg/mL). The class given is in vitro ADME, human. As to the method: Reaction mixtures containing Tris buffer (30 mM, pH 7.4) and mixed pooled gender liver S9 (10.0 mg/mL) were pre-incubated at 37° C. for 5 min. […] After incubation at 37° C., aliquots were taken at each time point and quenched in two volumes of ice-cold methanol. The quenched aliquots were then centrifuged at 14000 rpm for 5 minutes. The supernatant was diluted into Tris buffer (30 mM, pH 7.4) to yield concentrations appropriate for analysis and read spectrophotometrically monitoring a decrease in substrate at 305 nm.
A reaction mixture containing Tris buffer (30 mM, pH 7.4) and mixed pooled gender liver S9 (10.0 mg/mL) was pre-incubated at 37° C. for 5 minutes. The reaction was then initiated by the addition of emtricitabine trimethyl lock compound 25 (concentration of compound 25 ranging from 100 μM to 8 mM). After incubation at 37° C., aliquots were taken at each time point and quenched in two volumes of ice-cold methanol. The quenched aliquots were then centrifuged at 14000 rpm for 5 minutes. The supernatant was diluted into Tris buffer (30 mM, pH 7.4) to yield samples having concentrations appropriate for analysis and read spectrophotometrically monitoring a decrease in substrate at 312 nm.

A short description of data set [7]: Half-life measurements in human skeletal muscle S9. The class given is in vitro ADME. The following applies: Human muscle S9 (7.96 mg/mL), 37° C. As to the method:
(§3) To evaluate the hydrolysis rates of emtricitabine compounds 9-16, HPLC coupled with UV detection was used with the following method (0% to 100% acetonitrile in Et3NHOAc (50 mM, pH 8) gradient) over 10 minutes at a flow rate of 3 mL min^−1, held at 100% acetonitrile for 3 minutes, ramped down to 5% acetonitrile over 0.2 minutes and then held for 2.8 minutes. Male human plasma (Bioreclamation) or female human skeletal muscle S9 (7.96 mg/mL, Bioreclamation) was pre-incubated at 37° C. for 5 minutes. Compounds 9-16 (1 mM) were added and the reaction was incubated at 37° C. […] The supernatant was diluted 10 fold into Tris buffer (30 mM, pH 7.4) and injected onto the HPLC for analysis.
(§4) To evaluate the hydrolysis rates of emtricitabine trimethyl lock prodrugs, HPLC coupled with UV detection was used with the following method (0% to 100% acetonitrile in Et3NHOAc (50 mM, pH 8) gradient) over 10 minutes at a flow rate of 3 mL min^−1, held at 100% acetonitrile for 3 minutes, ramped down to 5% acetonitrile over 0.2 minutes and then held for 2.8 minutes. Human plasma (Bioreclamation) or human skeletal muscle S9 (7.96 mg/mL, Bioreclamation) was pre-incubated at 37° C. for 5 minutes. Emtricitabine trimethyl lock compound 25 (1 mM) was added and the reaction was incubated at 37° C. […] The supernatant was diluted in Tris buffer (100 mM, pH 7.4) and injected onto the HPLC for analysis.

The nature of data set [8]: Kinetic analysis of trimethyl lock prodrug in mouse liver S9 via UV. The class given is in vitro ADME. The settings on record: mouse liver S9 1.0 mg/mL. How it is done: The reaction is then initiated by the addition of emtricitabine trimethyl lock compound 25 (concentration of compound 25 ranging from 600 μM to 6 mM). […] The supernatant was diluted into Tris buffer (30 mM, pH 7.4) to yield concentrations appropriate for analysis and read spectrophotometrically monitoring a decrease in substrate at 312 nm.

Data set [9] is described as follows: Half-life measurements in human plasma (HPLC-UV). The class given is in vitro ADME. The settings on record: Human plasma, 37° C., read-out: Half-Life (converted). As to the method: as §3
as §4, with “analysis. […]” for “analysis.”

Turning to `CCCCCCCCOC(=O)Nc1nc(=O)n([C@@H]2CS[C@H](CO)O2)cc1F` [Compound 16, octyl (5-fluoro-1-((2R,5S)-2-(hydroxymethyl)-1,3-oxathiolan-5-yl)-2-oxo-1,2-dihydropyrimidin-4-yl)carbamate], the “toxicity on CD4+ T cells (viability staining)” value in the data set with CD4+ T cells is “little to no toxicity”. For the same molecule, the “hydrolysis rate in mouse liver S9” value in [1] is “comparable in mouse and human liver S9”. The molecule also showed a half-life in [2] of 18 h. Further, the “hydrolysis rate in mouse plasma” value in [3] is given as “dramatically enhanced relative to human plasma”.

Regarding `CN(C)/C=N\c1nc(=O)n([C@@H]2CS[C@H](CO)O2)cc1F` [Compound 23, (Z)—N′-(5-fluoro-1-((2R,5S)-2-(hydroxymethyl)-1,3-oxathiolan-5-yl)-2-oxo-1,2-dihydropyrimidin-4-yl)-N,N-dimethylformimidamide], the half-life at 1 mM in data set [4] is 95 h; in data set [5] it was 5.8 h.

Take `CC(=O)Oc1cc(C)cc(C)c1C(C)(C)CC(=O)Nc1nc(=O)n([C@@H]2CS[C@H](CO)O2)cc1F` [Compound 25, 2-(4-((5-fluoro-1-((2R,5S)-2-(hydroxymethyl)-1,3-oxathiolan-5-yl)-2-oxo-1,2-dihydropyrimidin-4-yl)amino)-2-methyl-4-oxobutan-2-yl)-3,5-dimethylphenyl acetate]: the “Intrinsic Clearance” value in data set [6] came out at 11.5 µL/min/mg; in data set [8] it was 138.3 µL/min/mg. Also, the Vmax in [6] is 1659 nmol/h/mg; in data set [8], 13200 nmol/h/mg. For the same molecule, the Km in [6] (both sexes, human, pooled liver S9, pH 7.4, 100 μM to 8 mM, 312 nm) was determined as 2400 µM; in data set [8] (both sexes, pooled mouse liver S9, pH 7.4, 600 μM to 6 mM) it was 1600 µM. Further, the half-life at 1 mM in data set [7] was 1 h; in data set [9], 0.4 h. In the data set on CD4+ T cells, the “toxicity on CD4+ T cells (viability staining)” value is recorded as “little to no toxicity”. The molecule also showed a half-life in data set [2] of 0.83 h.
